Experimental data taken from patent US12421207B2 (CMG Pharmaceutical Co., Ltd., priority 2022, dated 2025).
Read-outs that look alike come from different tables or passages of the source.

Experiments:
HCC827/ER cells = assay: Cell viability assay (CellTiter-Glo 2.0), erlotinib-resistant HCC827/ER cells; assay type: cell-based, human; conditions: 72 h drug treatment, read-out: Relative cell viability, IC50 HCC827ER
Description: (§1) To explore c-MET and AXL mechanisms of EGFR TKI resistance, resistant cells of the EGFR TKI hypersensitive EGFR exon 19 mutant NSCLC cell line, HCC827 and PC9 were generated by exposing these cells to increasing concentrations of EGFR TKI for over 3 months.
(§2) Gefitinib-resistant cells were referred to as HCC827/GR. […] Osimertinib-resistant cells were referred to as HCC827/OR.

PC9/ER cells = assay: Cell viability assay (CellTiter-Glo 2.0), erlotinib-resistant PC9/ER cells; assay type: cell-based
Description: as §1, §2

MER = target: T1, MER (Homo sapiens, UniProt Q12866); assay: Enzymatic kinase assay (ADP-Glo), MER; assay type: biochemical; conditions: poly (Glu4, Tyr1) substrate, 60 min room temperature, ADP-GLO luminescence
T1 sequence (Q12866 21-999): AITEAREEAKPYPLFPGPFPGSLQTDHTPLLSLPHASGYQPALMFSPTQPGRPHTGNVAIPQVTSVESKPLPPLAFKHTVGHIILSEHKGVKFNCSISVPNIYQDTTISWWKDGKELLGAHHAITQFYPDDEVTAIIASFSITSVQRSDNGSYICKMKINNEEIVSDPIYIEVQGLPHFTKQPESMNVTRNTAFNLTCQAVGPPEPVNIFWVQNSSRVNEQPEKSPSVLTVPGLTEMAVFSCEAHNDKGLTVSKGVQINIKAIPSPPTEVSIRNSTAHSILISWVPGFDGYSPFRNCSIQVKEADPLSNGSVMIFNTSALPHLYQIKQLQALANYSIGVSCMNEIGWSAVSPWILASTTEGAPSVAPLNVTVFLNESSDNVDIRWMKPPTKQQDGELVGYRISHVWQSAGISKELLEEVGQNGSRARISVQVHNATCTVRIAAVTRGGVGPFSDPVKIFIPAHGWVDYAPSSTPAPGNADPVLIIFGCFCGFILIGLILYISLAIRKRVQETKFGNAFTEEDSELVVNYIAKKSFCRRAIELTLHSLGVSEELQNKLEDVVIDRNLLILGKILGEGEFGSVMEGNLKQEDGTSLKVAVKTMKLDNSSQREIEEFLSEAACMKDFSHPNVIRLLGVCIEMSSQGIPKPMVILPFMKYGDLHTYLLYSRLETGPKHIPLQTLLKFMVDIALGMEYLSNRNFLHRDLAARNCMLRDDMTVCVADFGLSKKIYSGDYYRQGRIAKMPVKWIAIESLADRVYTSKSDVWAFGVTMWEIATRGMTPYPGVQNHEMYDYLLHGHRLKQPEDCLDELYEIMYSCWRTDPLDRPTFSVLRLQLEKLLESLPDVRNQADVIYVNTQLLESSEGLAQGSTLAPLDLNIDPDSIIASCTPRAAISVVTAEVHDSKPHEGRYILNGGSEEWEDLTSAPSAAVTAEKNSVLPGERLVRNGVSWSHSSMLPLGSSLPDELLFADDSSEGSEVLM
Protocol: (§3) All the kinase reactions were performed in 5 μL using tyrosine kinase buffer with 0.2 μg/μL poly (Glu4, Tyr1) substrate, 10 µM ATP, serial dilution of the inhibitor, and incubated at room temperature for 60 min. After the indicated incubation times, 5 μL ADP-GLO™ reagent (Promega, Madison, WI) was added to the reactions and the plate was incubated at room temperature for 40 min. Then, 10 μL of kinase detection reagent was added and after an incubation time of 40 min, luminescence was recorded and IC50 values were determined (Table 1). All 384-well assay plates were read using a GLOMAX™ Discover Microplate Luminometer from Promega (Madison, WI). To plot, analyze the data and calculate all kinase reaction biochemical values, both Microsoft Excel and Prism from GraphPad 7 Software (La Jolla, CA) were used.
All the kinase reactions were performed in 5 μL using tyrosine kinase buffer with 0.2 μg/μL poly (Glu4, Tyr1) substrate, 10 µM ATP, serial dilution of the inhibitor, and incubated at room temperature for 60 min. After the indicated incubation times, 5 μL ADP-GLO™ reagent (Promega, Madison, WI) was added to the reactions and the plate was incubated at room temperature for 40 min. […] All 384-well assay plates were read using a GLOMAX™ Discover Microplate Luminometer from Promega (Madison, WI). […]

AXL = target: T2, AXL (Homo sapiens, UniProt P30530); assay: Enzymatic kinase assay (ADP-Glo), AXL; assay type: biochemical; conditions: poly (Glu4, Tyr1) substrate, 60 min room temperature, ADP-GLO luminescence
T2 sequence (P30530 26-894): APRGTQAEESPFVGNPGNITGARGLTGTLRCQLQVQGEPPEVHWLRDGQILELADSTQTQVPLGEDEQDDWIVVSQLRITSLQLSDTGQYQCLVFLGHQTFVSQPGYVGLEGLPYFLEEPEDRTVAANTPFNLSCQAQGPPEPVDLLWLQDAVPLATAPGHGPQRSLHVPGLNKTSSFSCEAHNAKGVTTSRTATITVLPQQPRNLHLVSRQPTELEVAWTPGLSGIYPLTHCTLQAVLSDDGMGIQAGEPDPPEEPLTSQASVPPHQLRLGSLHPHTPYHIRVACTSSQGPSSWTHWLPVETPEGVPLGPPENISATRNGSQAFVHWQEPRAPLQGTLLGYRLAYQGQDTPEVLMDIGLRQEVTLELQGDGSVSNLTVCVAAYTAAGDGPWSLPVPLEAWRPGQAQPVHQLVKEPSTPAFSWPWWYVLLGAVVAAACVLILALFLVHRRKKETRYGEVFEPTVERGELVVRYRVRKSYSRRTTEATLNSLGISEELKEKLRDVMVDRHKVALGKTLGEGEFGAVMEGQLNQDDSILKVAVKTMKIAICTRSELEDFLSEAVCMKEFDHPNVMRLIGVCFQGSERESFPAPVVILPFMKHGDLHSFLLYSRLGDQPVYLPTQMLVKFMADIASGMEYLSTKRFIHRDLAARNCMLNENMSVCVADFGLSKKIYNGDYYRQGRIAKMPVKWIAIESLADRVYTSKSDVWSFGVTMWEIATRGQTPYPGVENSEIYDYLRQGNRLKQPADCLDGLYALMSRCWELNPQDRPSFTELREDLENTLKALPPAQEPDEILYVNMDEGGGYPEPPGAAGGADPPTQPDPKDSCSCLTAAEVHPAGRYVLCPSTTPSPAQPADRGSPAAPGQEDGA
Protocol: as §3, with “Then, 10 μL of kinase detection reagent was added and after an incubation time of 40 min, luminescence was recorded and IC50 values were determined (Table 1).” left out

HCC827/GR cells = assay: Cell viability assay (CellTiter-Glo 2.0), gefitinib-resistant HCC827/GR cells; assay type: cell-based, human; conditions: 72 h drug treatment, read-out: Relative cell viability, IC50 HCC827GR
In short: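 Gefitinib-resistant HCC827 cells, derived by over 3 months' escalating EGFR TKI exposure, seeded at 1,000 cells/well. Treated 72 h with a 10-point dose range from 1 nM to 10,000 nM. Viability read by CellTiter-Glo 2.0 luminescence.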

HCC827/OR cells = assay: Cell viability assay (CellTiter-Glo 2.0), osimertinib-resistant HCC827/OR cells; assay type: cell-based, human
Description: as §1, §2

c-MET = c-MET (Homo sapiens, UniProt P08581); assay: Enzymatic kinase assay (ADP-Glo), c-MET; assay type: biochemical; conditions: poly (Glu4, Tyr1) substrate, 60 min room temperature, ADP-GLO luminescence
Protocol: as §3, with “Then, 10 μL of kinase detection reagent was added and after an incubation time of 40 min, luminescence was recorded and IC50 values were determined (Table 1).” left out

HCC827 cells = assay: cells; conditions: Homo sapiens, HCC827, read-out: EGFR TKI IC50 in HCC827 cells
Protocol: (§4) The human cell line HCC827 was purchased from the American Type Culture Collection (Manassas, VA), and the PC9 cell line was obtained from RIKEN Cell Bank (Ibaraki, Japan). […] Gefitinib-resistant cells were referred to as HCC827/GR. […] Osimertinib-resistant cells were referred to as HCC827/OR.
(§5) Cell viability assays were carried out by plating 1,000 cells per well of HCC827 or PC9 resistant cells, respectively, into white transparent-bottom 384-well plates. The cells were treated with each TKI across a 10-dose range from 1 nM to 10,000 nM. After 72 h of drug treatment, cell viability was measured using the CellTiter-Glo 2.0 assay (Promega, Madison, WI).

PC9 cells = assay: Cell viability assay, parental PC9 cells; assay type: cell-based; conditions: Homo sapiens, PC-9; parental EGFR TKI-sensitive cells
Protocol: as §4, §5

[1] = Table 4, combinations of EGFR TKIs and inhibitor of Formula (I)
[2] = Table 2, EGFR TKI resistant cells, combination with EGFR TKI

Chain of c-MET (P08581 25-1390): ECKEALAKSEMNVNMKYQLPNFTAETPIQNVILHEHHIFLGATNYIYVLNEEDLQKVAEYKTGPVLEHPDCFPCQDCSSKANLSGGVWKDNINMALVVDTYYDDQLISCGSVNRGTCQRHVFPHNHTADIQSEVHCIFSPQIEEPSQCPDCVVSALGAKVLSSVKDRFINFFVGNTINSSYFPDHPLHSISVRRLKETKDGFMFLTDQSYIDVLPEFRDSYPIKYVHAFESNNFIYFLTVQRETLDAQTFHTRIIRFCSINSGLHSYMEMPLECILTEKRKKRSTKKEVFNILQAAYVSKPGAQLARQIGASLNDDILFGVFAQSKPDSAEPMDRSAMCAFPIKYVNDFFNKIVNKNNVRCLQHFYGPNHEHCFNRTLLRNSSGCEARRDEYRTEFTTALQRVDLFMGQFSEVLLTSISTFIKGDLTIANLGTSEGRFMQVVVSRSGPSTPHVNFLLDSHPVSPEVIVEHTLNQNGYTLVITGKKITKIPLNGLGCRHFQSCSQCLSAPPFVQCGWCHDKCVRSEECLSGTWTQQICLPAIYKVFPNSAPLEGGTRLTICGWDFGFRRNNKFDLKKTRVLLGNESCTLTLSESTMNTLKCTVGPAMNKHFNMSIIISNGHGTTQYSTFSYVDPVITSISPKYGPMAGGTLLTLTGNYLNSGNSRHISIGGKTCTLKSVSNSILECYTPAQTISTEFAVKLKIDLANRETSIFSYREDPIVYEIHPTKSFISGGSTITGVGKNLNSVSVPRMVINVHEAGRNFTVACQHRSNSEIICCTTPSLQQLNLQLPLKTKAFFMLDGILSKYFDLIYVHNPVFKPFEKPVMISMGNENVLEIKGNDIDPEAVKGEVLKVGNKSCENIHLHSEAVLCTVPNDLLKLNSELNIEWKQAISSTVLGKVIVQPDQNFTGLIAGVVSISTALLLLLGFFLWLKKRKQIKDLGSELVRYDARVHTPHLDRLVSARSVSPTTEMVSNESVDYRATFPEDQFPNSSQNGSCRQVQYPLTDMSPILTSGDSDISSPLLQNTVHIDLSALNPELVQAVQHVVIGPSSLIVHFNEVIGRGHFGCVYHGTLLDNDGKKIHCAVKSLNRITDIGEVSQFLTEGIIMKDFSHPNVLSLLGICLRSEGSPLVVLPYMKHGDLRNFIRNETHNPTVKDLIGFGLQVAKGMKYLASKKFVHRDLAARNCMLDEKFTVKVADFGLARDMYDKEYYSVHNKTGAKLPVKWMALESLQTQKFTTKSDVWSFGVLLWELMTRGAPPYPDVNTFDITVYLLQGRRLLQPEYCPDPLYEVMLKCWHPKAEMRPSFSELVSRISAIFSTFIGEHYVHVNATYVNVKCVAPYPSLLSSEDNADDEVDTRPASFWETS

In the case of “N-(4-(2-amino-3-(3-piperidin-4-yl)prop-1-ynyl)pyridin-4-yloxy)-3-fluorophenyl)-3-cyclohexyl-1-ethyl-2,4-dioxo-1,2,3,4-tetrahydropyrimidine-5-carboxamide [Example 65]”, the IC50 (HCC827/ER cells; [1]) is reported as < 1000 nM, the IC50 (PC9/ER cells; Table 4, 72 h drug treatment, combinations of EGFR TKIs and inhibitor of Formula (I), read-out: Relative cell viability, IC50 PC9ER) is reported as < 1000 nM and the IC50 (MER; Table 3) is reported as < 10 nM. For the same compound, the IC50 (AXL; Table 3) was < 10 nM, the IC50 (HCC827/GR cells; [1]) was < 1000 nM and the IC50 (HCC827/OR cells; Table 4, 72 h drug treatment, combinations of EGFR TKIs and inhibitor of Formula (I), read-out: Relative cell viability, IC50 HCC827OR) was < 10000 nM. The IC50 (c-MET; Table 3) was < 100 nM.
For `C=CC(=O)Nc1cc(Nc2nccc(-c3cn(C)c4ccccc34)n2)c(OC)cc1N(C)CCN(C)C` [osimertinib, reference compound], the IC50 (HCC827 cells) was < 0.3 nM, the “higher resistance than the parental cells, HCC827/OR” value (HCC827/OR cells; HCC827/OR versus parental HCC827) was 3,000 fold and the IC50 (HCC827/OR cells; Homo sapiens, HCC827, read-out: EGFR TKI IC50 in HCC827/OR cells) was > 1000 nM.
In the case of `CC(C)c1c(Oc2ccc(NC(=O)c3cn(C(C)C)c(=O)n(-c4ccc(F)cc4)c3=O)cc2F)ccnc1N` [Example 8], the IC50 (HCC827/ER cells; [2]) is reported as < 100 nM, the IC50 (PC9/ER cells; Table 2, 72 h drug treatment, EGFR TKI resistant cells, combination with EGFR TKI, read-out: Relative cell viability, IC50 PC9ER) is reported as < 10000 nM and the IC50 (MER; Table 1) is reported as < 100 nM. The IC50 (AXL; Table 1) was < 10 nM, the IC50 (HCC827/GR cells; [2]) was < 100 nM and the IC50 (HCC827/OR cells; Table 2, 72 h drug treatment, EGFR TKI resistant cells, combination with EGFR TKI, read-out: Relative cell viability, IC50 HCC827OR) was < 100 nM. For the same compound, the IC50 (c-MET; Table 1) was < 10 nM.
`C#Cc1cccc(Nc2ncnc3cc(OCCOC)c(OCCOC)cc23)c1` [erlotinib, reference compound] was tested, and the IC50 (PC9/ER cells; Homo sapiens, PC-9/ER, read-out: EGFR TKI IC50 in PC9/ER) was > 10000 nM, the “higher resistance than the parental cells, PC9/ER” value (PC9/ER cells; PC9/ER versus parental PC9) was 1,000 fold and the IC50 (PC9 cells) was < 10 nM.
